“Also recorded” adds a separate entry of the source.
Legend:
Cathepsin V [1] = biological target: T1, Cathepsin V (Homo sapiens, UniProt O60911); experiment: Determination of binding reversibility (dilution method); type: biochemical; conditions: inhibitor 100 μM, cathepsin V 500 ng/ml
T1 construct: made in house; host or cells: Pichia pastoris
Experimental: Binding reversibility was determined according to the dilution method, which measures the recovery of enzymatic activity after rapid dilution of the enzyme-inhibitor complex. Cathepsin V (500 ng/ml) was incubated in the assay buffer with the inhibitor (100 μM). Half of the reaction mixture was immediately diluted 100-fold with the assay buffer and added to the wells of a black microplate containing 5 μL of substrate (at a final concentration of 2 μM), and the activity was measured. The other half of the reaction mixture was incubated for 2 h before it was diluted 100-fold, and then the activity was measured. The assay was performed in triplicates and repeated at least two times.

Kinetic solubility = type: physicochemical; conditions: PBS pH 7.4 with 5 % DMSO, pH 7.4, aqueous with cosolvent or surfactant or cyclodextrin, kinetic from dmso stock; PBS with 5 % DMSO
Experimental: The solubility of compound 7 was determined in buffer (PBS pH 7.4) containing 5 % DMSO. Serial dilutions of 7 were prepared in DMSO at concentrations of 4 mM, 2 mM, 1.5 mM, 1 mM, and 0.2 mM. The assay was performed in 96-well microplates in duplicate. Briefly, to 190 µL of buffer, 10 µL of the compound stock solution in DMSO was added. The plate was shaken and the absorbance at 620 nm was measured using a plate reader (Synergy H4, BioTek Instruments, Inc., Santa Clara, CA, USA) in area scan mode (5 × 5 measurements per well). The mean absorbance was then compared relative to the blank to determine the solubility of the compound at each concentration tested.

K-562 cells = experiment: Cell viability assay (MTS); type: cell-based, human; conditions: 24 h
Experimental: The effect of compound 7 on the viability of NK-92, TALL-104, and K-562 cells was evaluated using the MTS [3-(4,5-dimethylthiazol-2-yl)-5-(3-carboxymetoxyphenyl)-2-(4-sulfophenyl)–2H-tetrazolium] colorimetric assay (CellTiter 96 Aqueous One Solution Cell Proliferation Assay, Promega, Madison, WI, USA). NK-92, TALL-104, and K-562 cells were seeded at 2.5 × 10^4, 1 × 10^5, and 1 × 10^4 cells/well, respectively, into a 96-well microplate and treated with inhibitors (2.5, 5, or 10 µM) or DMSO (0.1 %) for 24 h. After incubation, 10 µL of the reagent MTS was added to the wells, and the absorbance of formazan was measured at 492 nm on a Tecan Infinite M1000 (Mannedorf, Switzerland). Cell viability (%) was expressed as the ratio between absorbance in the presence of the compounds and in the presence of DMSO. All assays were performed in quadruplicate and repeated at least twice.

[2] = Aqueous stability (HPLC-based assay); type: physicochemical; conditions: 50 μM, 60 h
Experimental: HPLC analyses were performed as described under the Compound characterization section. The method used a Waters Acquity UPLC® HSS C18 SB column (2.1 × 50 mm, 1.8 µm) thermostated at 40 °C, injection volume, 10 µL; flow rate, 0.3 mL/min; detector λ, 280 nm; mobile phase A: 0.1 % TFA (v/v) in water; mobile phase B: MeCN. Method: 0–9 min, 5 % – 95 % B; 9 – 11 min, 95 % B; 11 – 11.5 min, 95 % - 5% B.
Compound 7 stock solution (1 mM) was prepared in DMSO, while internal standard (caffeine, 1 mM) was dissolved in buffer (PBS pH 7.4). The aqueous stability solution was prepared by mixing 1400 µL buffer, 400 µL MeCN, 100 µL internal standard stock solution, and 100 µL compound stock solution in a HPLC vial to give 50 μM compound, 50 μM internal standard, 20 % MeCN, and 5 % DMSO in buffer, which was injected immediately and then at hourly intervals for 60 h while being incubated at 37 °C. The analyte areas under curve (AUCs) were normalized on internal standard AUCs.

[3] = biological target: T2, human recombinant cathepsin L (Homo sapiens, UniProt P07711); experiment: Determination of Ki values and mode of inhibition; type: biochemical; conditions: mean ± SD (n = 2)
T2 construct: made in house; host or cells: Escherichia coli
T2 sequence (P07711 114-333): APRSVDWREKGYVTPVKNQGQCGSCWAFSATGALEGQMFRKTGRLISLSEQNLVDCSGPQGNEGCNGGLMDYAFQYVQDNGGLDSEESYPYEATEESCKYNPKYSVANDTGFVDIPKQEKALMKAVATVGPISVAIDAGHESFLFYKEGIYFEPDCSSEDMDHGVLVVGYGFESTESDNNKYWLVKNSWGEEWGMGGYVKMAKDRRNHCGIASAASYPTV
Experimental: (§1) Human recombinant cathepsin V was expressed in Pichia Pastoris, and human recombinant cathepsin L was expressed in Escherichia coli, as reported, [51]. To determine the activities of cathepsins V and L, 100 mM acetate buffer (pH 5.5), containing 0.1 % PEG 8000 (Sigma-Aldrich, St. Louis, MO, USA), 5 mM cysteine, and 1.5 mM EDTA was used. Prior to the assay, the enzyme was activated in the assay buffer for 5 min at 37 °C.
(§2) Inhibition constants were calculated from reaction velocities measured at three substrate concentrations (0.5, 1, and 4 μM) in the presence of inhibitors at seven concentrations (0, 20, 40, 60, 80, 100, and 200 µM). The reaction was initiated by adding 90 μL of enzyme at final concentrations of 2.5 ng/mL and 0.02 nM for cathepsins V and L, respectively, to the wells of a black microtiter plate containing 5 μL of substrate and 5 μL of inhibitor. To evaluate cathepsin V and L activity, the substrate Z-Phe-Arg-AMC was used. The formation of the fluorescent degradation products was monitored as described above. All assay mixtures contained 5 % (v/v) DMSO. All measurements were performed in duplicates and repeated at least twice. The SigmaPlot® 12, Enzyme Kinetics Module™ 1.3 was used to calculate Ki values.

Cathepsin V [4] = biological target: T1, Cathepsin V; experiment: Determination of Ki values and mode of inhibition; type: biochemical
Experimental: as §1, §2

T1 sequence (O60911 114-334): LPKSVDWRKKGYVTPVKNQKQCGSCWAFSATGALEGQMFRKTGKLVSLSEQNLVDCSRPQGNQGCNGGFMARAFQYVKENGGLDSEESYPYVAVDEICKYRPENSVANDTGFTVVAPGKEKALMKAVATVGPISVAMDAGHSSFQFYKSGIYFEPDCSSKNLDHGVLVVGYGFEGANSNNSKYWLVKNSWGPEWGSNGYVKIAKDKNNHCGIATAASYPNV

With `O=C(NCc1cccc2ccccc12)NCC1CCN(C(=O)Oc2ccccc2)CC1` [Compound 7, Phenyl 4-((3-(naphthalen-1-ylmethyl)ureido)methyl)piperidine-1-carboxylate] the “binding reversibility: cathepsin V activity after 2 h incubation and 100-fold rapid dilution” value (Cathepsin V [1]) was “reversible; also recorded: restored”, the solubility kinetic (Kinetic solubility) was 75 to 100 µM and the “viability of K-562 cells” value (K-562 cells; 10 μM) was “slightly decreased”. For the same compound, the “viability of K-562 cells” value (K-562 cells; up to 5 μM) was “not decreased”, the aqueous stability ([2]; PBS pH 7.4, 20 % MeCN, 5 % DMSO, 37 °C) was “stable for days” and the “difference between the last and the first timepoint (normalized AUC)” value ([2]; PBS pH 7.4, 37 °C, smaller than experimental error) was under 2%. The “Cathepsin L Ki (µM)” value [3] was “no inhibition and did not inhibit cathepsin L and n.i^f and n.i”, the “Cathepsin L Ki′ (µM)” value [3] was “n.i^f” and the “mode of inhibition of cathepsin V” value (Cathepsin V [4]) was “competitive”. For the same compound, the Ki (Cathepsin V [4]; mean ± SD (n = 2)) was 88.7 ± 10.2 µM.
